Measured values taken from the METLIN SMRT retention time set (Domingo-Almenara et al. 2019).

Test: gradient 5% acetonitrile 3 min, to 50% in 2 min, to 85% in 15 min, held 3 min, 100 µL/min
Details: column: Zorbax Extend-C18 2.1 x 50 mm; eluents: water / acetonitrile, 0.1% formic acid
In short: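 Retention times of pure standards were taken from adduct peaks that were selected by computer and manually inspected. Over 3 months, mixtures of ~100 molecules were run by HPLC–quadrupole time-of-flight mass spectrometry in positive and negative ionization mode. The Zorbax Extend-C18 column (2.1 × 50 mm, 1.8 μm) ran at 100 μL/min in water and acetonitrile, each containing 0.1% formic acid, with 40 μL dead volume and 900 μL dwell volume.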

Row | Compound | RP-LC retention time
1 | Cc1ccc(C)c(S(=O)(=O)N2CCC(F)(c3nc(CC(C)C)no3)CC2)c1 | 1270 s
2 | CNC(=O)c1cc(-c2ccccc2Cl)n[nH]1 | 668 s
3 | O=C(CC(F)(F)F)N1CCCC(CCc2nnc(C3CCOCC3)o2)C1 (centres undefined) | 682 s
4 | O=C(Nc1cccs1)Nc1ccccc1NC(=O)c1ccccc1C(F)(F)F | 805 s
5 | O=C(Cc1ccc(F)cc1)NC(c1ccccc1)c1nnc(N2CCOCC2)o1 (centres undefined) | 743 s
6 | Cc1cccc(CNC(=O)CN2C(=O)C3CCCCN3c3ccc(S(=O)(=O)N(C)C)cc32)c1 (centres undefined) | 932 s
7 | CCC(C)NC(=O)c1ccc2ncnc(N3CCCCC3)c2c1 (centres undefined) | 618 s
8 | O=S(=O)(c1cccc2c(Cl)cccc12)N1CCCNCC1 | 716 s
9 | Cc1cc(C(=O)NCCCSC2CCCCC2)n(-c2ccccc2)n1 | 1030 s
10 | Cc1cnn(Cc2nc(-c3ccc(NC(=O)C4CCCC4)cc3)oc2C)c1 | 905 s
11 | CC(=O)N1CCN(c2nc3c(s2)CC(C(=O)Nc2ccc(Cl)c(C)c2)CC3)CC1 (centres undefined) | 652 s
12 | CCc1nc2onc(C)c2c(=O)n1CC(=O)NCc1ccccc1F | 792 s
13 | Cc1cc(NC(=O)C2CCN(C(=O)c3cc(-c4ccc5c(c4)OCO5)n[nH]3)CC2)no1 | 671 s
14 | CC(C)OCCCNC(=O)C1CCN(S(=O)(=O)c2ccc3c(c2)CCCC(=O)N3)CC1 | 674 s
15 | O=C(Nc1nnc(SCc2c(F)cccc2Cl)s1)c1cc(C2CC2)on1 | 1010 s
16 | Cc1cc(-c2nnc(C3CCC3)o2)c(C)n1CC(=O)Nc1cccc(Cl)c1 | 960 s
17 | CC(C)CN1CCn2cc(S(=O)(=O)Nc3ccc(F)c(F)c3)cc2C1=O | 842 s
18 | Cc1noc(-c2ccc(OC3CN(C(=O)NC4CCCCC4)C3)cc2)n1 | 846 s
19 | COc1cc(CNC(=O)CCC(=O)N2CC3CCCN3c3ccccc32)cc(OC)c1OC (centres undefined) | 818 s
20 | Cc1cccc2nnc(N3CCC(C(=O)NCc4ccccc4Cl)CC3)n12 | 679 s
21 | O=C(NCCc1ccccc1)NCCC1CCN(S(=O)(=O)c2ccc(F)cc2)CC1 | 887 s
22 | O=C(NCC1CCCO1)c1ccc(-c2ccc(N3CCCCC3)nc2)cc1 (centres undefined) | 613 s
23 | COC(=O)c1c(C)c(C(=O)C(C)N(C(=O)c2ccc(F)cc2)C(C)C)c(C)n1C (centres undefined) | 922 s
24 | Cc1cc(Cl)ccc1-n1ncc2c(N3CCN(CCO)CC3)ncnc21 | 613 s
25 | CC1(C)Cc2cccc(OCC(=O)N3CCN(Cc4nnnn4-c4ccccc4)CC3)c2O1 | 811 s
26 | O=S(=O)(Nc1cccn2cnnc12)c1ccc2c(c1)CCC2 | 736 s
27 | COc1ccc(NC(=O)Cn2nc(N3CCCC(C)C3)c3ccccc3c2=O)cc1OC (centres undefined) | 997 s

Row | Compound | RP-LC retention time
28 | CCNC(=O)C1CCCN(c2nc3ncn(CC(=O)NC4CCCCC4)c(=O)c3s2)C1 (centres undefined) | 658 s
29 | CN(C(=O)Cn1nc(Cc2ccncc2)c2ccccc2c1=O)C1CCCCC1 | 640 s
30 | COc1ccccc1-c1nnc(NC(=O)c2ccc3c(c2)CCCC3)o1 | 822 s
31 | Cn1c(=O)n(C)c2cc(S(=O)(=O)C3CCCCC3)c(NC(=O)c3c(F)cccc3F)cc21 | 914 s
32 | O=C(CCc1ccccc1)Nc1cnc(-c2cccnc2)nc1 | 690 s
33 | CC(C)CN1CCn2cc(C(=O)NCC3CCCCC3)nc2C1 | 634 s
34 | O=C(C1=NN(Cc2ccccc2)c2ccccc2S1(=O)=O)N1CCCCC1 | 929 s
35 | O=C(COc1ccccc1)N1CCCC(COc2ccc(C(=O)N3CCCC3)cc2)C1 (centres undefined) | 808 s
36 | Cc1oc(C(C)C)nc1C(=O)NCc1ccccc1C(F)(F)F | 1050 s
37 | COc1ccc2c(c1)C1(CCN(C(=O)Cc3ccc(C)cc3)C1)C(=O)N2C (centres undefined) | 854 s
38 | O=C(NCCC1CCN(C(=O)Nc2ccc(F)cc2)CC1)c1ccco1 | 718 s
39 | O=C(CN1C(=O)CCCc2cc(S(=O)(=O)N3CCCCC3)ccc21)N1CCc2ccccc2C1 | 922 s
40 | COCCC1CCN(C(=O)Cc2c(C)noc2C)CC1 | 636 s
41 | Cc1ccc(CNC(=O)C2CCCN(C(=O)c3[nH]c(C)c(C(=O)OC(C)C)c3C)C2)cc1 (centres undefined) | 893 s
42 | CCCC(=O)OCC1OC(n2ccc(N)nc2=O)C(OC(=O)CCC)C1OC(=O)CCC (centres undefined) | 738 s
43 | C[C@H]1CN(C(=O)C2CCCC2)C[C@@H]1c1nc(-c2ccccc2)no1 | 1060 s
44 | Fc1ccc(-c2nnc(-c3ccc(-n4ccnc4)nc3)o2)cc1 | 648 s
45 | CN1c2ccccc2C(=O)NC12CCN(C(=O)NCCc1ccccc1)CC2 | 728 s
46 | Cn1nnc2cc(-c3noc(C4CC(=O)N(c5ccccc5)C4)n3)ccc21 (centres undefined) | 788 s
47 | CN1CCn2cc(S(=O)(=O)N3CCN(c4ccccc4)CC3)cc2C1=O | 764 s
48 | O=C(Nc1cccc(F)c1)C1CCN(S(=O)(=O)c2cc(C(=O)N3CCCC3)cs2)CC1 | 829 s
49 | Cc1cc(C)n(CCC(=O)NCC23CCC=C2N(CC2CC2)C(=O)CC3)n1 (centres undefined) | 698 s
50 | Cc1ccc(CN2CCn3c(nn(C)c3=O)C2)nc1 | 530 s
51 | O=C(CCn1nnc2cc(-c3noc(C4(c5ccccc5)CC4)n3)ccc21)N1CCCC1 | 958 s
52 | Cc1noc(C)c1-c1ccc(S(=O)(=O)NCc2ccco2)cc1 | 842 s
53 | CNC(=O)N1CCOc2cc(C)ccc21 | 713 s
54 | Cc1cc(C)c(S(=O)(=O)N2CCc3nc[nH]c3C2)cc1C | 643 s

Second part, the molecule after the results:

Row | RP-LC retention time | Compound
55 | 628 s | Cn1c(CNC(=O)CN2CCN(Cc3ccc(F)cc3)C2=O)nc2ccccc21
56 | 1320 s | CCc1ccc(-c2nc(-c3ccc4c(c3)N(CC)C(=O)CO4)no2)cc1
57 | 633 s | CCCN(Cc1ccc(OC)cc1)Cc1cc(=O)n2cc(C)ccc2n1
58 | 1180 s | CCc1ccc(-c2ccc(=O)n(CCc3nc(-c4ccc(C)cc4)no3)n2)cc1
59 | 816 s | Cc1ccc(-c2cn3cccnc3n2)cc1NC(=O)c1ccc(C(C)(C)C)cc1
60 | 1040 s | CCCN1C(=O)COc2ccc(-c3noc(Cc4c[nH]c5ccccc45)n3)cc21
61 | 671 s | CCNc1cc(N2CCCC(CCC(=O)Nc3ccc(OC)cc3OC)C2)ncn1 (centres undefined)
62 | 1010 s | COc1ccc(-c2noc(-c3ccc(=O)n(Cc4c(F)cccc4Cl)c3)n2)cc1
63 | 760 s | CCOc1ccc(-c2nc3ncccn3c2NCc2ccc(Cl)cc2)cc1OC
64 | 982 s | CCc1cccc(C)c1Nc1c(-c2ccc(C(=O)OC)cc2)nc2cnccn12
65 | 1020 s | Oc1cccc(-c2nc3cnccn3c2Nc2ccc(Br)cc2)c1
66 | 709 s | CCN(CCCNC(=O)c1sc2ncccc2c1-n1cccc1)c1ccccc1
67 | 748 s | CCOC(=O)N1CCC2(CC1)N=C(c1ccc(F)cc1)CC(c1cccc(OC)c1O)N2 (centres undefined)
68 | 750 s | Cc1ccc(-c2cn3c(CC(=O)NCc4ccco4)csc3n2)cc1C
69 | 677 s | CCOc1ccc(CN(CCOC)Cc2cc(=O)n3cc(Cl)ccc3n2)cc1
70 | 671 s | CCN(CC)C(=O)c1ccc(-c2nc3cc(NS(=O)(=O)c4ccccc4)ccc3n2C)cc1
71 | 753 s | CCCN1C(=O)c2cccnc2Sc2cc(C(=O)NC(C)C)ccc21
72 | 647 s | COc1cc(-c2nc3nc(C)cc(C)n3c2Nc2ccccc2)ccc1O

Row | RP-LC retention time | Compound
73 | 917 s | CCOC(=O)c1ccc(N2C=C(C#N)S(=O)(=O)c3ccccc32)cc1
74 | 990 s | COc1ccc(-c2cc3c(=O)n(Cc4nc(-c5ccccc5OC)oc4C)ccn3n2)cc1OC
75 | 1050 s | Cn1ccc2cc(CCC(=O)N3CCN(c4ccc(Cl)cc4)CC3)ccc21
76 | 725 s | CCOC(=O)Cn1c(C2CC(=O)N(c3cc(OC)ccc3OC)C2)nc2ccccc21 (centres undefined)
77 | 826 s | COc1ccc(OC)c(CNC(=O)c2nnc(-c3ccc(S(=O)(=O)N4CCOCC4)cc3)o2)c1
78 | 869 s | Cc1cnn(Cc2nc(-c3ccc(NC(=O)COc4ccccc4)cc3)oc2C)c1
79 | 1100 s | Cc1ccc(Sc2nccnc2N2CCCC(C(=O)NCc3ccc(F)cc3)C2)cc1 (centres undefined)
80 | 1040 s | O=C(c1ccccc1)C1N=NCC1c1ccc(Cl)cc1 (centres undefined)
81 | 888 s | COc1ccc(N2CCN(c3cc(SCC(=O)NCc4ccccc4OC)ncn3)CC2)cc1
82 | 765 s | Cc1ccc(CN2CCN(C3CCN(C(=O)Nc4ccc5c(c4)OCCO5)CC3)C2=O)cc1
83 | 822 s | Cc1ccc(Cn2nnc3cc(C(=O)N4CCN(c5ncccn5)CC4)ccc32)cc1
84 | 541 s | Cc1nc(-c2ccncc2)nc2c1CCC(=O)N2CCc1ccccn1
85 | 856 s | Cc1cc(NC(=O)Cc2nn(C)c(=O)c3ccccc23)ccc1Br
86 | 951 s | C=Cc1ccc(CN2N=C(C(=O)N3CCOCC3)S(=O)(=O)c3ccc(Cl)cc32)cc1
87 | 771 s | Cc1ccc(-c2noc(-c3ccccc3S(=O)(=O)NCCN3CCC(C)CC3)n2)cc1
88 | 592 s | COc1ccccc1-c1cc2nc(C)cc(NCC3CCCO3)n2n1 (centres undefined)
89 | 732 s | CCOc1ccc(CCNC(=O)c2nc(N3CCCC3)c3ccccc3n2)cc1OCC
